Experimental data taken from patent publication US8450317B2, “CXCR3 receptor antagonists” (Boehringer Ingelheim International GmbH, priority 2009, dated 2013).

biological target: CXCR3 (Macaca fascicularis, UniProt A0A2K5UV19); assay: functional cellular assay measuring calcium flux in CXCR3 transfected cells (block of CXCR3/IP-10 interaction); type: cell-based, Cyno; settings: IP-10 induced intracellular calcium flux; Cyno-CHO cells stably expressing recombinant CXCR3 and G-alpha-16; IP-10 at EC80; read-out: IC50
Method in brief: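 Cyno-CHO cells stably expressing CXCR3 and G-alpha-16, loaded with Ca-4 dye in HBSS/10 mM HEPES pH 7.4 with 2 mM probenecid for 1 h at 37° C. Compound (final 10 microM) preincubated 15 min at room temperature, then IP-10 at EC80 added; calcium flux read at 480/540 nm.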

Chain of CXCR3 (A0A2K5UV19 entry or part of it): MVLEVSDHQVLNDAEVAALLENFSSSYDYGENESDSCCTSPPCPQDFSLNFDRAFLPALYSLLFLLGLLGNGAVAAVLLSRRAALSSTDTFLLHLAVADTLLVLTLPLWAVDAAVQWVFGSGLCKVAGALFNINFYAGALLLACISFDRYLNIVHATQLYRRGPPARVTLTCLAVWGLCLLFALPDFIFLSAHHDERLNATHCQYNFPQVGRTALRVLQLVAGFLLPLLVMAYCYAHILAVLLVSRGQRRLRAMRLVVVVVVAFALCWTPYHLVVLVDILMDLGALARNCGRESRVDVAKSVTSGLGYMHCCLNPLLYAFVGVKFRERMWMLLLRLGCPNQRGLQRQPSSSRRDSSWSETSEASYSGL

`O=C(Cn1c(=O)[nH]c2ccccc21)N1CCN(c2ccc(F)cc2-c2cnc(N3CCCC3)nc2)CC1` [1-[2-(4-{4-fluoro-2-[2-(pyrrolidin-1-yl)pyrimidin-5-yl]phenyl}piperazin-1-yl)-2-oxoethyl]-1,3-dihydro-2H-benzimidazol-2-one] and `CN1CCN(c2ncc(-c3cc(F)ccc3N3CCN(C(=O)Cn4c(=O)[nH]c5ccccc54)CC3)cn2)CC1` [1-[2-(4-{4-fluoro-2-[2-(4-methylpiperazin-1-yl)pyrimidin-5-yl]phenyl}piperazin-1-yl)-2-oxoethyl]-1,3-dihydro-2H-benzimidazol-2-one] are the same in IC50: 14 nM for the first, 14 nM for the second.

`CC1CN(c2ccc(C(F)(F)F)cc2-c2cnc(N3CCC(S(C)(=O)=O)CC3)nc2)CCN1C(=O)CN1CCCCC1=O` (centres unmarked) [1-(2-{2-methyl-4-[2-{2-[4-(methylsulfonyl)piperidin-1-yl]pyrimidin-5-yl}-4-(trifluoromethyl)phenyl]piperazin-1-yl}-2-oxoethyl)piperidin-2-one] and `CC1CN(c2ccc(C(F)(F)F)cc2-c2cnc(N3CCC(O)CC3)nc2)CCN1C(=O)CN1CCCCC1=O` (centres unmarked) [1-[2-(4-{2-[2-(4-hydroxypiperidin-1-yl)pyrimidin-5-yl]-4-(trifluoromethyl)phenyl}-2-methylpiperazin-1-yl)-2-oxoethyl]piperidin-2-one] are the same in IC50: 11 nM for the first, 11 nM for the second.

`O=C(Cn1ccc2ccncc21)N1CCN(c2ccc(F)cc2-c2cnc(N3CCCC3)nc2)CC1` [1-(4-{4-fluoro-2-[2-(pyrrolidin-1-yl)pyrimidin-5-yl]phenyl}piperazin-1-yl)-2-(1H-pyrrolo[2,3-c]pyridin-1-yl)ethanone] and `O=C(Cn1ccc2cccnc21)N1CCN(c2ccc(F)cc2-c2cnc(N3CCOCC3)nc2)CC1` [1-(4-{4-fluoro-2-[2-(morpholin-4-yl)pyrimidin-5-yl]phenyl}piperazin-1-yl)-2-(1H-pyrrolo[2,3-b]pyridin-1-yl)ethanone] are the same in IC50: 14 nM for the first, 14 nM for the second.

First: Cc1cc(C)n(CC(=O)N2CCN(c3ccccc3-c3ccc(C#N)cc3)CC2)n1 [2′-{4-[2-(3,5-Dimethyl-pyrazol-1-yl)-acetyl]-piperazin-1-yl}-biphenyl-4-carbonitrile]
Second: Cc1cc(C)n(CC(=O)N2CCN(c3ccccc3-c3cnc(Oc4cccnc4)nc3)CC2)n1 [2-(3,5-Dimethyl-pyrazol-1-yl)-1-(4-{2-[2-(pyridin-3-yloxy)-pyrimidin-5-yl]-phenyl}-piperazin-1-yl)-ethanone]
The IC50 of the first is 1.8-fold higher: 100 nM for the first, 56 nM for the second. The second is the more potent here.

`CSc1ncc(-c2cc(Cl)ccc2N2CCN(C(=O)Cn3ccc4cccnc43)CC2)cn1` [1-{4-[4-Chloro-2-(2-methylsulfanyl-pyrimidin-5-yl)-phenyl]-piperazin-1-yl}-2-pyrrolo[2,3-b]pyridin-1-yl-ethanone] and `N#Cc1ccc(N2CCN(C(=O)Cn3ccc4cccnc43)CC2)c(-c2cnc(N3CCOCC3)nc2)c1` [3-(2-Morpholin-4-yl-pyrimidin-5-yl)-4-[4-(2-pyrrolo[2,3-b]pyridin-1-yl-acetyl)-piperazin-1-yl]-benzonitrile] are the same in IC50: 8 nM for the first, 8 nM for the second.

Going from `O=C(CNc1nccs1)N1CCN(c2ccccc2-c2cnc(N3CCOCC3)nc2)CC1` [1-{4-[2-(2-Morpholin-4-yl-pyrimidin-5-yl)-phenyl]-piperazin-1-yl}-2-(thiazol-2-ylamino)-ethanone] to `O=C(Cn1c(=O)[nH]c2ccccc21)N1CCN(c2ccccc2-c2cnc(N3CCOCC3)nc2)CC1` [1-(2-{4-[2-(2-Morpholin-4-yl-pyrimidin-5-yl)-phenyl]-piperazin-1-yl}-2-oxo-ethyl)-1,3-dihydro-benzoimidazol-2-one], the IC50 falls from 35 nM to 10 nM (3.5-fold).

`CC1CN(c2ccc(F)cc2-c2cnc(N3CCC(S(C)(=O)=O)CC3)nc2)CCN1C(=O)Cn1c(=O)[nH]c2ccccc21` (centres unmarked) [1-{2-[4-(4-fluoro-2-{2-[4-(methylsulfonyl)piperidin-1-yl]pyrimidin-5-yl}phenyl)-2-methylpiperazin-1-yl]-2-oxoethyl}-1,3-dihydro-2H-benzimidazol-2-one] and `CS(=O)(=O)C1CCN(c2ncc(-c3cc(F)ccc3N3CCN(C(=O)Cn4c(=O)[nH]c5ccccc54)CC3)cn2)CC1` [1-{2-[4-(4-fluoro-2-{2-[4-(methylsulfonyl)piperidin-1-yl]pyrimidin-5-yl}phenyl)piperazin-1-yl]-2-oxoethyl}-1,3-dihydro-2H-benzimidazol-2-one] are within 1.5-fold of each other in IC50: 9 nM for the first, 7 nM for the second.

First: Cc1cc(C)n(CC(=O)N2CCN(c3ccccc3-c3cnc(N4C[C@H]5CC[C@@H]4C5)nc3)CC2)n1 [1-(4-{2-[(1R,4S)-2-(2-Aza-bicyclo[2.2.1]hept-2-yl)-pyrimidin-5-yl]-phenyl}-piperazin-1-yl)-2-(3,5-dimethyl-pyrazol-1-yl)-ethanone]
Second: Cc1cc(C)n(CC(=O)N2CCN(c3ccccc3-c3cnc(N4CCC(C(N)=O)CC4)nc3)CC2)n1 [1-[5-(2-{4-[2-(3,5-Dimethyl-pyrazol-1-yl)-acetyl]-piperazin-1-yl}-phenyl)-pyrimidin-2-yl]-piperidine-4-carboxylic acid amide]
The IC50 of the first is 1.5-fold lower: 4 nM for the first, 6 nM for the second. The first is the more potent here.

`O=C(Cn1ccc2cccnc21)N1CCN(c2c(F)cccc2-c2cnc(N3CCOCC3)nc2)CC1` [1-{4-[2-Fluoro-6-(2-morpholin-4-yl-pyrimidin-5-yl)-phenyl]-piperazin-1-yl}-2-pyrrolo[2,3-b]pyridin-1-yl-ethanone] and `O=C(Cn1cnc2cccnc21)N1CCN(c2ccc(F)cc2-c2cnc(N3CCOCC3)nc2)CC1` [1-(4-{4-fluoro-2-[2-(morpholin-4-yl)pyrimidin-5-yl]phenyl}piperazin-1-yl)-2-(3H-imidazo[4,5-b]pyridin-3-yl)ethanone] are within 1.5-fold of each other in IC50: 27 nM for the first, 24 nM for the second.

`COc1ncc(-c2cc(F)ccc2N2CCN(C(=O)Cn3c(=O)[nH]c4ccccc43)CC2)cn1` [1-(2-{4-[4-fluoro-2-(2-methoxypyrimidin-5-yl)phenyl]piperazin-1-yl}-2-oxoethyl)-1,3-dihydro-2H-benzimidazol-2-one] and `COc1ncc(-c2ccccc2N2CCN(C(=O)Cn3cnc4cccnc43)CC2)cn1` [2-Imidazo[4,5-b]pyridin-3-yl-1-{4-[2-(2-methoxy-pyrimidin-5-yl)-phenyl]-piperazin-1-yl}-ethanone] are within 1.5-fold of each other in IC50: 13 nM for the first, 15 nM for the second.

First: Cc1cc(C)n(CC(=O)N2CCN(c3ccccc3-c3cnc(N4CCC(F)(F)CC4)nc3)CC2)n1 [1-(4-{2-[2-(4,4-Difluoro-piperidin-1-yl)-pyrimidin-5-yl]-phenyl}-piperazin-1-yl)-2-(3,5-dimethyl-pyrazol-1-yl)-ethanone]
Second: Cc1cc(C)n(CC(=O)N2CCN(c3ccccc3-c3cnc(N4CCCCC4)nc3)CC2)n1 [2-(3,5-Dimethyl-pyrazol-1-yl)-1-{4-[2-(2-piperidin-1-yl-pyrimidin-5-yl)-phenyl]-piperazin-1-yl}-ethanone]
The IC50 of the first is 3.1-fold higher: 22 nM for the first, 7 nM for the second.

Going from `Cc1cc(C)n(CC(=O)N2CCN(c3ccc(F)cc3-c3cnc(N4CCN(C)CC4)nc3)CC2)n1` [2-(3,5-dimethyl-1H-pyrazol-1-yl)-1-(4-{4-fluoro-2-[2-(4-methylpiperazin-1-yl)pyrimidin-5-yl]phenyl}piperazin-1-yl)ethanone] to `Cc1cc(C)n(CC(=O)N2CCN(c3ccccc3-c3cnc(N4CCC5CCCCC5C4)nc3)CC2)n1` (centres unmarked) [2-(3,5-Dimethyl-pyrazol-1-yl)-1-(4-{2-[2-(octahydro-isoquinolin-2-yl)-pyrimidin-5-yl]-phenyl}-piperazin-1-yl)-ethanone], the IC50 falls from 40 nM to 21 nM (1.9-fold).

`O=C(CN1CCCCC1=O)N1CCN(c2ccc(F)cc2-c2cnc(N3CCC(O)CC3)nc2)CC1` [1-[2-(4-{4-fluoro-2-[2-(4-hydroxypiperidin-1-yl)pyrimidin-5-yl]phenyl}piperazin-1-yl)-2-oxoethyl]piperidin-2-one] and `CS(=O)(=O)C1CCN(c2ncc(-c3cc(F)ccc3N3CCN(C(=O)CN4CCCCC4=O)CC3)cn2)CC1` [1-{2-[4-(4-fluoro-2-{2-[4-(methylsulfonyl)piperidin-1-yl]pyrimidin-5-yl}phenyl)piperazin-1-yl]-2-oxoethyl}piperidin-2-one] are within 1.5-fold of each other in IC50: 16 nM for the first, 15 nM for the second.

Compared with `CC1CN(c2ccc(C(F)(F)F)cc2-c2cnc(S(C)(=O)=O)nc2)CCN1C(=O)Cn1c(=O)[nH]c2ccccc21` (centres unmarked) [1-[2-(2-methyl-4-{2-[2-(methylsulfonyl)pyrimidin-5-yl]-4-(trifluoromethyl)phenyl}piperazin-1-yl)-2-oxoethyl]-1,3-dihydro-2H-benzimidazol-2-one], `CC1CN(c2ccc(F)cc2-c2cnc(S(C)(=O)=O)nc2)CCN1C(=O)Cn1ccc2cccnc21` (centres unmarked) [1-(4-{4-fluoro-2-[2-(methylsulfonyl)pyrimidin-5-yl]phenyl}-2-methylpiperazin-1-yl)-2-(1H-pyrrolo[2,3-b]pyridin-1-yl)ethanone] is 2.4-fold higher in IC50: 20 nM for the first, 48 nM for the second.

`CC1CN(c2ccccc2-c2cnc(N3CCC(O)CC3)nc2)CCN1C(=O)Cn1c(=O)[nH]c2ccccc21` (centres unmarked) [1-[2-(4-{2-[2-(4-hydroxypiperidin-1-yl)pyrimidin-5-yl]phenyl}-2-methylpiperazin-1-yl)-2-oxoethyl]-1,3-dihydro-2H-benzimidazol-2-one] and `Cc1cc(C)n(CC(=O)N2CCN(c3ccccc3-c3cnc(N4CCC(S(C)(=O)=O)CC4)nc3)CC2C)n1` (centres unmarked) [2-(3,5-dimethyl-1H-pyrazol-1-yl)-1-[2-methyl-4-(2-{2-[4-(methylsulfonyl)piperidin-1-yl]pyrimidin-5-yl}phenyl)piperazin-1-yl]ethanone] are within 1.5-fold of each other in IC50: 8 nM for the first, 9 nM for the second.

Compared with `COc1cc(NC(=O)c2cc(F)ccc2N2CCN(C(=O)CN(C)C(=O)C(C)C)[C@H](C)C2)ccn1` [5-fluoro-N-(2-methoxypyridin-4-yl)-2-{(3R)-3-methyl-4-[N-methyl-N-(2-methylpropanoyl)glycyl]piperazin-1-yl}benzamide], `CC1CN(c2ccccc2-c2cnc(S(C)(=O)=O)nc2)CCN1C(=O)Cn1cnc2cccnc21` (centres unmarked) [2-(3H-imidazo[4,5-b]pyridin-3-yl)-1-(2-methyl-4-{2-[2-(methylsulfonyl)pyrimidin-5-yl]phenyl}piperazin-1-yl)ethanone] is 48-fold higher in IC50: 9 nM for the first, 434 nM for the second. The first is the more potent here.
